Experimental data from US20230416248A1, “COMPOUNDS AND USES THEREOF” (Foghorn Therapeutics Inc., priority 2020, published 2023).
pIC50: −log10 of the molar value.

Experiments:
BRM = biological target: T1, BRM (Homo sapiens, UniProt P51531); experiment: ATPase catalytic activity of BRM, ADP-Glo in vitro biochemical assay; conditions: for pIC50: ADP-Glo ATPase assay, 30 nM BRM, 400 μM ATP; for Ratio* (BRG1 IC50 (μM) divided by BRM IC50 (μM)): selectivity ratio BRG1 IC50 / BRM IC50
T1 construct: made in house; host or cells: High Five insect cells
T1 sequence (P51531 whole entry): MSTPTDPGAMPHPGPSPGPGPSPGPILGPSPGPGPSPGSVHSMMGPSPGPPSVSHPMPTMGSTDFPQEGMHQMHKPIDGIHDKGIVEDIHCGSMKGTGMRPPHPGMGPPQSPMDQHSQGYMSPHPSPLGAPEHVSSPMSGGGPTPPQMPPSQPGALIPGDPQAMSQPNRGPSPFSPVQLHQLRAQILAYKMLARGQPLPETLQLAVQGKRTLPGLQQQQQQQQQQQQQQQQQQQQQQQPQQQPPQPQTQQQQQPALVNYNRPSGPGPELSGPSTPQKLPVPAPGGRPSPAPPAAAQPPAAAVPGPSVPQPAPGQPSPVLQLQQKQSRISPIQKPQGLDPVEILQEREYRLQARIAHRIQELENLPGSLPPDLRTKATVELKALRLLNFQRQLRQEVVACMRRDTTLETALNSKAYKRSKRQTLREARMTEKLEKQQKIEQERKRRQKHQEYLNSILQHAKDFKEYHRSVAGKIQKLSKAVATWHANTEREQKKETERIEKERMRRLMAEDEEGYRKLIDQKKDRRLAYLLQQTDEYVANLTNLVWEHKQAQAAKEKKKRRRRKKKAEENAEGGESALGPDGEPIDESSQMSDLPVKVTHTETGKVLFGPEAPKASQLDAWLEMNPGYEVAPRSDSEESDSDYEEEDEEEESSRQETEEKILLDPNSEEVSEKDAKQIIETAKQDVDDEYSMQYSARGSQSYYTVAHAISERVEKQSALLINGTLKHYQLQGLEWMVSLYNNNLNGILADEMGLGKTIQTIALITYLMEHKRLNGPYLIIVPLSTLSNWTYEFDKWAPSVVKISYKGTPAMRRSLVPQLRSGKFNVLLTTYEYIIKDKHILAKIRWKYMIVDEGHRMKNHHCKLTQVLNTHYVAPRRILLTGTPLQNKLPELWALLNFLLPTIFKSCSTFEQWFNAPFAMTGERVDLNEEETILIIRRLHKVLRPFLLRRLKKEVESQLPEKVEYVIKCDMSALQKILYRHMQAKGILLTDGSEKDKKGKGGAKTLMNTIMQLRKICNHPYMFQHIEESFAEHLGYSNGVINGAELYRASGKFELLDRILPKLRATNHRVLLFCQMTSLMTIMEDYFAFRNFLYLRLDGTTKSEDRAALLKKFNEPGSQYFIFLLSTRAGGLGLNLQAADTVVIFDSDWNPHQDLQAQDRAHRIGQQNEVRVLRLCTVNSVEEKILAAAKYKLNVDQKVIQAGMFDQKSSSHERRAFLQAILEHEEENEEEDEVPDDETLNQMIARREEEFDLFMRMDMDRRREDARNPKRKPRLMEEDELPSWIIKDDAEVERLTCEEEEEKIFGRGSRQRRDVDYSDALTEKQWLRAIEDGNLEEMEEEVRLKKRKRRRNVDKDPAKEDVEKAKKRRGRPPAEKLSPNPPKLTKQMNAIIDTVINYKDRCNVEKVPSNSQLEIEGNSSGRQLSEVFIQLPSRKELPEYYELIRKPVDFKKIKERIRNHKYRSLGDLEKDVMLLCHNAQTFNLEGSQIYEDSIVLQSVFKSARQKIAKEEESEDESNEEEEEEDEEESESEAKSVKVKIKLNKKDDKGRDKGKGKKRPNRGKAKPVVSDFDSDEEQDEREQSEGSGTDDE
Protocol: (§1) The ATPase catalytic activity of BRM or BRG-1 was measured by an in vitro biochemical assay using ADP-Glo™ (Promega, V9102). The ADP-Glo™ kinase assay is performed in two steps once the reaction is complete. The first step is to deplete any unconsumed ATP in the reaction. The second step is to convert the reaction product ADP to ATP, which will be utilized by the luciferase to generate luminesce and be detected by a luminescence reader, such as Envision.
The assay reaction mixture ([…]) contains 30 nM of BRM or BRG-1, 20 nM salmon sperm DNA (from Invitrogen, UfraPure™ Salmon Sperm DNA Solution, cat #15632011), and 400 μM of ATP in the ATPase assay buffer, which comprises of 20 mM Tris, pH 8, 20 mM MgCl2, 50 mM NaCl, 0.1% Tween-20, and 1 mM fresh DTT (Piercer™ DTT (Dithiothreitol), cat #20290). The reaction is initiated by the addition of the 2.5 μL ATPase solution to 2.5 μL ATP/DNA solution on low volume white Proxiplate-384 plus plate (PerkinElmer, cat #6008280) and incubates at room temperature for 1 hour. Then, following addition of 5 μL of ADP-Glo™ Reagent provided in the kit, the reaction incubates at room temperature for 40 minutes. Then, 10 μL of Kinase Detection Reagent provided in the kit is added to convert ADP to ATP, and the reaction incubates at room temperature for 60 minutes. Finally, luminescence measurement is collected with a plate-reading luminometer, such as Envision.

BRG-1 = biological target: T2, BRG-1 (Homo sapiens, UniProt P51532); experiment: ATPase catalytic activity of BRG-1, ADP-Glo in vitro biochemical assay; conditions: ADP-Glo ATPase assay, 30 nM BRG-1, 400 μM ATP; read-out: BRG1 IC50
T2 construct: made in house; host or cells: High Five insect cells
T2 sequence (P51532 whole entry): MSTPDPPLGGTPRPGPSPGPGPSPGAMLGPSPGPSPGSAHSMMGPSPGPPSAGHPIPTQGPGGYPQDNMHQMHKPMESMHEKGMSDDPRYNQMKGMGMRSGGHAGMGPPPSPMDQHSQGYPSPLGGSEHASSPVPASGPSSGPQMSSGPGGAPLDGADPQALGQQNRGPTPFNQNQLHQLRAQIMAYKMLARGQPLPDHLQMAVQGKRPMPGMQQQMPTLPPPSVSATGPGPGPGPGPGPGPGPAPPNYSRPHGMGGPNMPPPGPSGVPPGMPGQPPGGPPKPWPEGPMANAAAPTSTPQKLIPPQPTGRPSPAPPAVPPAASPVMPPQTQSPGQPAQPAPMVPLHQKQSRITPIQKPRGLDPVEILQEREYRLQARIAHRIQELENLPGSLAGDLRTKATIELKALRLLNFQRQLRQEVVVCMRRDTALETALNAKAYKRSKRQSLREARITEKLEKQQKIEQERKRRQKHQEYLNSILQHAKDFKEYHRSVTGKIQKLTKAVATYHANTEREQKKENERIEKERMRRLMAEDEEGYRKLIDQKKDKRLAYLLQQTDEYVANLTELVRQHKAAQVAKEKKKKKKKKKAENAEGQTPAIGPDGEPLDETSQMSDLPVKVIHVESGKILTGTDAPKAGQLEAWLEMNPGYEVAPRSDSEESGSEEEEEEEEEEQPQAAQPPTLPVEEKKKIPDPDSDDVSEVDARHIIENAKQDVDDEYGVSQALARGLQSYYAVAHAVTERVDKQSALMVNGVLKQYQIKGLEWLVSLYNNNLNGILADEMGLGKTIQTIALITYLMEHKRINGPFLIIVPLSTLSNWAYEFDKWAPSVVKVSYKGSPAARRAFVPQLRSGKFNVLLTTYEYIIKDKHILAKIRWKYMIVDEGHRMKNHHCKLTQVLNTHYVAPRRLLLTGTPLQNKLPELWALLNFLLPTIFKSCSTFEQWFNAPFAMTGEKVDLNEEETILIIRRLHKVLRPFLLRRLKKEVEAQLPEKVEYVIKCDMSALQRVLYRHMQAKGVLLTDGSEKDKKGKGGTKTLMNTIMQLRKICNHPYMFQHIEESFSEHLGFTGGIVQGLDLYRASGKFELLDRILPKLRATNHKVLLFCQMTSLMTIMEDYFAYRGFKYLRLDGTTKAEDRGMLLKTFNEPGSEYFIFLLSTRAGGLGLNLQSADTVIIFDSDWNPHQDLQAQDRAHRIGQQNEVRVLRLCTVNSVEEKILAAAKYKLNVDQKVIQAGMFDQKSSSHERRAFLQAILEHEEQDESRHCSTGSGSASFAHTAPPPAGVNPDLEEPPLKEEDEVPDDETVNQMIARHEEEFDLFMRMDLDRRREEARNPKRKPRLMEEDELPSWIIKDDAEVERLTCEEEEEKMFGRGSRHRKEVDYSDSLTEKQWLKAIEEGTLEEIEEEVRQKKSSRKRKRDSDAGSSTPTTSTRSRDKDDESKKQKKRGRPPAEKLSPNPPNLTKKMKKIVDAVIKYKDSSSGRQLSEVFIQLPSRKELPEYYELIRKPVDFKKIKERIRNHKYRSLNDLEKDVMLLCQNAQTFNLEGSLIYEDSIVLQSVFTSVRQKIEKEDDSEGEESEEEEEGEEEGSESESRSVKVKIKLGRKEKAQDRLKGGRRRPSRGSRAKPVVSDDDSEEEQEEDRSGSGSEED
Protocol: as §1
Then, following addition of 5 μL of ADP-Glo™ Reagent provided in the kit, the reaction incubates at room temperature for 40 minutes. Then, 10 μL of Kinase Detection Reagent provided in the kit is added to convert ADP to ATP, and the reaction incubates at room temperature for 60 minutes. Finally, luminescence measurement is collected with a plate-reading luminometer, such as Envision.

Row | SMILES | pIC50 (BRM) | Ratio* (BRG1 IC50 (μM) divided by BRM IC50 (μM)) (BRM) | pIC50 (BRG-1)
1 | CN[C@H]1CCN(c2cccc(-c3ccc4cnc(CNC(=O)c5ccc6c(c5)S(=O)(=O)CCOC6)cc4n3)n2)CC1(F)F [Compound 67] | 7.05 | 6.55 | 6.23
2 | C[C@@H]1CN(c2cccc(-c3ccc4cnc(CNC(=O)c5cc(C6CC6)c6c(c5)S(=O)(=O)CCOC6)cc4n3)n2)C[C@H](C)O1 [Compound 75] | 7.46 | 19.65 | 6.17
3 | CS(=O)(=O)c1cc(C(=O)NCc2cc3nc(-c4cccc(N5CC[C@H]6COC[C@H]6C5)n4)ccc3cn2)ccc1Cl [Compound 76] | 7.34 | 14.90 | 6.17
4 | CS(=O)(=O)c1cc(C(=O)NCc2cc3nc(-c4cccc(N5CC[C@@H]6COC[C@@H]6C5)n4)ccc3cn2)ccc1Cl [Compound 77] | 7.11 | 13.85 | 5.97
5 | O=C(NCc1cc2nc(-c3cccc(N4CCCOCC4)n3)ccc2cn1)c1ccc2c(c1)S(=O)(=O)CCOC2 [Compound 78] | 7.72 | 10.42 | 6.70
6 | COCCNc1cccc(-c2ccc3cnc(CNC(=O)c4ccc(C(F)F)c(S(C)(=O)=O)c4)cc3n2)n1 [Compound 80] | 6.75 | 11.75 | 5.68
7 | C[C@@H]1CN(c2cccc(-c3ccc4cnc(CNC(=O)c5cccc(S(C)(=O)=O)c5Cl)cc4n3)n2)C[C@H](C)O1 [Compound 82] | 6.37 | 11.71 | 5.30
8 | COCCN1CCCc2c(-c3ccc4cnc(CNC(=O)c5ccc6c(c5)S(=O)(=O)CCOC6)cc4n3)cccc21 [Compound 84] | 6.92 | 4.71 | 6.24
9 | CS(=O)(=O)c1cc(C(=O)NCc2cc3nc(-c4cccc(N5CC[C@@H]6COCC6C5)n4)ccc3cn2)ccc1C(F)F (stereo partly drawn) [Compound 86] | 7.65 | 14.43 | 6.49
10 | O=C(NCc1cc2nc(N3CCc4cnccc4C3)ccc2cn1)c1ccc2c(c1)S(=O)(=O)CCOC2 [Compound 87] | 6.16 | 7.14 | 5.31
11 | COCCN1CCOc2c(-c3ccc4cnc(CNC(=O)c5ccc(Cl)c(S(C)(=O)=O)c5)cc4n3)cccc21 [Compound 88] | 7.47 | 15.63 | 6.27
12 | COCCN1CCOc2c(-c3ccc4cnc(CNC(=O)c5ccc(C(F)F)c(S(C)(=O)=O)c5)cc4n3)cccc21 [Compound 89] | 7.51 | 21.02 | 6.19
13 | O=C(NCc1cc2nc(N3CCCc4cnccc43)ccc2cn1)c1ccc2c(c1)S(=O)(=O)CCOC2 [Compound 90] | 6.78 | 12.89 | 5.67
14 | C[C@@H]1CN(c2cccc(-c3ccc4cnc(CNC(=O)c5ccc6c(c5)S(=O)(=O)CCCC6)cc4n3)n2)C[C@H](C)O1 [Compound 91] | 8.32 | 3.52 | 7.77
15 | CS(=O)(=O)c1cc(C(=O)NCc2cc3nc(-c4cccc(N5CC[C@H]6COC[C@H]6C5)n4)ccc3cn2)ccc1C(F)F [Compound 95] | 7.39 | 15.00 | 6.21
16 | CS(=O)(=O)c1cc(C(=O)NCc2cc3nc(-c4cccc(N5CC[C@@H]6COC[C@@H]6C5)n4)ccc3cn2)ccc1C(F)F [Compound 96] | 7.30 | 14.09 | 6.15
17 | COCCN(C)c1cccc(-c2ccc3cnc(CNC(=O)c4ccc(Cl)c(S(C)(=O)=O)c4)cc3n2)n1 [Compound 97] | 7.69 | 15.97 | 6.49
18 | CS(=O)(=O)c1cc(C(=O)NCc2cc3nc(-c4cccc(N5CC[C@H]6OCC[C@@H]6C5)n4)ccc3cn2)ccc1Cl [Compound 98] | 7.48 | 7.80 | 6.59
19 | CS(=O)(=O)c1cc(C(=O)NCc2cc3nc(-c4cccc(N5CC[C@@H]6OCC[C@H]6C5)n4)ccc3cn2)ccc1Cl [Compound 99] | 7.10 | 11.24 | 6.05
20 | Cc1cc(C(=O)NCc2cc3nc(-c4cccc(N5C[C@@H](C)O[C@@H](C)C5)n4)ccc3cn2)cc2c1COCCS2(=O)=O [Compound 101] | 8.10 | 7.32 | 7.24
21 | COc1cc(Cl)ccc1-c1ccc2cnc(CNC(=O)c3ccc4c(c3)S(=O)(=O)CCOC4)cc2n1 [Compound 102] | 7.73 | 7.68 | 6.84

Next, values leading:

Row | pIC50 (BRM) | Ratio* (BRG1 IC50 (μM) divided by BRM IC50 (μM)) (BRM) | pIC50 (BRG-1) | SMILES
22 | 6.36 | 11.38 | 5.31 | CO[C@H](C)c1cccc(-c2ccc3cnc(CNC(=O)c4ccc5c(c4)S(=O)(=O)CCOC5)cc3n2)n1 [Compound 68]
23 | 6.58 | 9.44 | 5.61 | CO[C@@H](C)c1cccc(-c2ccc3cnc(CNC(=O)c4ccc5c(c4)S(=O)(=O)CCOC5)cc3n2)n1 [Compound 69]
24 | 7.43 | 11.02 | 6.39 | COC[C@H](C)N(C)c1cccc(-c2ccc3cnc(CNC(=O)c4ccc5c(c4)S(=O)(=O)CCOC5)cc3n2)n1 [Compound 70]
25 | 7.62 | 11.93 | 6.55 | CN(CC1COC1)c1cccc(-c2ccc3cnc(CNC(=O)c4ccc5c(c4)S(=O)(=O)CCOC5)cc3n2)n1 [Compound 71]
26 | 6.65 | 5.48 | 5.91 | COC[C@@H](C)N(C)c1cccc(-c2ccc3cnc(CNC(=O)c4ccc5c(c4)S(=O)(=O)CCOC5)cc3n2)n1 [Compound 72]
27 | 8.17 | 11.74 | 7.10 | CCN(CCOC)c1cccc(-c2ccc3cnc(CNC(=O)c4ccc5c(c4)S(=O)(=O)CCOC5)cc3n2)n1 [Compound 73]
28 | 6.91 | 9.63 | 5.93 | O=C(NCc1cc2nc(-c3cccc(OC4CC(F)(F)C4)n3)ccc2cn1)c1ccc2c(c1)S(=O)(=O)CCOC2 [Compound 74]
29 | 7.84 | 7.89 | 6.94 | CN(C)[C@@H]1CCN(c2cccc(-c3ccc4cnc(CNC(=O)c5ccc6c(c5)S(=O)(=O)CCOC6)cc4n3)n2)CC1(F)F [Compound 79]
30 | 6.56 | 6.33 | 5.76 | CN(C)[C@H]1CCN(c2cccc(-c3ccc4cnc(CNC(=O)c5ccc6c(c5)S(=O)(=O)CCOC6)cc4n3)n2)CC1(F)F [Compound 81]
31 | 8.09 | 16.64 | 6.87 | CCN(CC)c1cccc(-c2ccc3cnc(CNC(=O)c4ccc5c(c4)S(=O)(=O)CCOC5)cc3n2)n1 [Compound 83]
32 | 7.80 | 8.19 | 6.89 | Cc1cc2ccc(-c3ccc4cnc(CNC(=O)c5ccc6c(c5)S(=O)(=O)CCOC6)cc4n3)nc2n1C [Compound 85]
33 | 8.11 | 13.36 | 6.99 | CO[C@@H]1CCCN(c2cccc(-c3ccc4cnc(CNC(=O)c5ccc6c(c5)S(=O)(=O)CCOC6)cc4n3)n2)C1 [Compound 92]
34 | 8.02 | 9.74 | 7.03 | CO[C@H]1CCCN(c2cccc(-c3ccc4cnc(CNC(=O)c5ccc6c(c5)S(=O)(=O)CCOC6)cc4n3)n2)C1 [Compound 93]
35 | 7.49 | 9.02 | 6.54 | CN(c1cccc(-c2ccc3cnc(CNC(=O)c4ccc5c(c4)S(=O)(=O)CCOC5)cc3n2)n1)C1CC1 [Compound 94]
36 | 8.10 | 11.83 | 7.03 | COCCN(C)c1cccc(-c2ccc3cnc(CNC(=O)c4cc(F)c5c(c4)S(=O)(=O)CCOC5)cc3n2)n1 [Compound 100]
37 | 6.60 | 10.96 | 5.56 | O=C(NCc1cc2nc(-c3cccc(OCC(F)F)c3)ccc2cn1)c1ccc2c(c1)S(=O)(=O)CCOC2 [Compound 103]
38 | 6.69 | 4.45 | 6.04 | C[C@@H]1COC[C@H](C)N1c1cccc(-c2ccc3cnc(CNC(=O)c4ccc5c(c4)S(=O)(=O)CCOC5)cc3n2)n1 [Compound 104]
